Experimental data from patent US8883169B2, “Immunogen platform” (Chrontech Pharma AB, priority 2007, dated 2014).

Tests used:
[1] = system: NS3/4A-expressing EL-4 lymphoma cells; experiment: In vivo inhibition of growth of NS3/4A-expressing EL-4 tumor cells; settings: C57BL/6 mice immunized only once
Procedure: To confirm that inhibition of tumor growth using the NS3/4A-expressing EL-4 cell line is fully dependent on an NS3/4A-specific immune response a control experiment was performed. […] Two weeks after the last immunization the mice were challenged with an s.c. injection of 10^6 native EL-4 or NS3/4A-expressing EL-4 cells (NS3/4A-EL-4). An NS3/4A-specific immune response was required for protection, since only the immunized mice were protected against growth of the NS3/4A-EL-4 cell line (FIG. 10A). Thus, this H-2^b-restricted model behaves similarly to the SP2/0 H-2^d restricted model.
As set forth herein, the NS3/4A gene can be used as a vaccine. Although it had been determined that NS3/4A quickly primed in vivo functional CTLs, the effect of therapeutic immunization after the injection of tumor cells was analyzed next. Groups of ten C57BL/6 mice were challenged with 10^6 NS3/4A-EL-4 tumor cells. […]
In vivo challenge of immunized mice with the NS3/4A-expressing SP2/0 myeloma or EL-4 lymphoma cell line was performed according to the method described by Encke et al., supra. […] The kinetics of the tumor growth was determined by measuring the tumor size through the skin at days six to 20. […]
To test the therapeutic effect of the vaccines groups of mice were inoculated with the tumor cells as described above. […] The tumor growth was monitored from day 6 to day 20.

[2] = system: NS3-specific IgG1 and IgG2a antibodies; experiment: EIA of NS3-specific IgG subclasses (IgG1, IgG2a); type: in vivo, mice; settings: 10 μg rNS3 with 0.1 or 1.0 mg ribavirin i.p. at weeks 0 and 4, bled at week six
antibodies to rNS3 = experiment: EIA of antibodies to rNS3 after immunization with rNS3 with or without ribavirin; type: in vivo, Balb/c mice
Procedure: In a first set of experiments, groups of three to five Balb/c mice (BK Universal, Uppsala, Sweden) were immunized i.p or s.c. (e.g., at the base of the tail) with 10 μg or 100 μg of recombinant hepatitis C virus non-structural 3 (rNS3) protein. […] Mice were injected with a total volume of […] per injection.
At two and four weeks following i.p. immunization, all mice were bled by retro-orbital sampling. Serum samples were collected and analyzed for the presence of antibodies to rNS3. To determine the antibody titer, an enzyme immunoassay (EIA) was performed. (See e.g., Hultgren et al., J Gen Virol. 79:2381-91 (1998) and Hultgren et al., Clin. Diagn. Lab. Immunol. 4:630-632 (1997)). The antibody levels were recorded as the highest serum dilution giving an optical density at 405 nm more than twice that of non-immunized mice.
At four, six and eight weeks the mice were bled and serum was separated and frozen. After completion of the study, sera were tested for the levels of antibodies to recombinant NS3, as described above. Mean antibody levels to rNS3 were compared between the groups using Student's t-test (parametric analysis) or Mann-Whitney (non-parametric analysis) and the software package StatView 4.5 (Abacus Concepts, Berkeley, Calif.). […] The values given represent end point titres to recombinant rNS3.
The levels of antibody to the antigen were then determined by EIA.
A second set of experiments was also performed. […] The mice were bled at week six and rNS3-specific IgG levels were determined by EIA as described previously.

[3] = system: CD4+ T cells of lymph nodes; experiment: In vitro recall assay, CD4+ T cell proliferation by [3H]thymidine incorporation; type: cell-based, mice; settings: 100 μg rNS3 mixed with 1 mg ribavirin s.c.; ten days post-immunization; 96 h of culture
Procedure: This assay can be used with any ribavirin derivative or combinations of ribavirin derivatives to determine the extent that a particular vaccine formulation modulates a cellular immune response. […] The mice were sacrificed ten days post-immunization and their lymph nodes were harvested and drained. In vitro recall assays were then performed. (See e.g., Hultgren et al., J Gen Virol. 79:2381-91 (1998) and Hultgren et al., Clin. Diagn. Lab. Immunol. 4:630-632 (1997)). The amount of CD4^+ T cell proliferation was determined at 96 h of culture by the incorporation of [^3H]thymidine.

antibodies to HBsAg = experiment: EIA of antibody titer to HBsAg after Engerix vaccine with or without ribavirin; type: in vivo, mice; settings: 1 mg ribavirin, i.p., booster on week four, bled on week six
Source text: (Engerix, SKB). […] A booster containing the same mixture was given on week four and all mice were bled on week six.

[4] = system: NS3 and birch specific T cells; experiment: ELISpot assay of γ-IFN-secreting CTLs and T helper cells (NS3 and birch specific); type: cell-based, C57/BL6 mice; settings: immunized twice, 4 weeks apart; two weeks after the second injection
Procedure: (§1) Groups of C57/BL6 mice were immunized twice with 50 μg of either plasmid containing a codon optimized NS3/4A gene, a NS3/4A-Betv1 fusion gene containing a protease cleavage site between NS3 and NS4A as well as a protease cleavage site between the NS4A and the birch antigen (SEQ ID NO: 1380), or a NS3/4A-Betv1 fusion gene containing a protease cleavage site between NS3 and NS4A, a protease cleavage site between the NS4A and the birch antigen as well as two additional protease cleavage sites within the birch antigen (SEQ ID NO: 1381) using an electroporation device. Another group of mice were immunized twice with recombinant Betv1 protein (rBetv1) in Freunds incomplete adjuvant. The two immunizations were 4 weeks apart. The mice were sacrificed two weeks after the second immunizations and the lymph nodes and spleens of each group were collected and analyzed.
The presence of γ-IFN-secreting CTLs and T helper (Th) cells to antigens in splenocyte or lymph node cultures were evaluated using a commercially available ELISpot assay. […] The ability of NS3-specific and birch-specific Th and CTLs to produce γ-IFN recalled by a concanavalin-A (con-A) as a positive control, media alone as a negative control, native HBcAg, recombinant HBcAg (rHBcAg), various concentrations of NS3/4A CTL peptide, various concentrations of rNS3, and various concentrations of rBetv1 was analyzed via the ELISpot.

IgE to Betv1 = experiment: ELISA of IgE antibodies on recombinant birch protein; type: in vivo, C57/BL6 mice; settings: immunized twice, bled two weeks after the second immunization
Procedure: as §1, with “bled” for “sacrificed”, “immunizations.” for “immunizations and the lymph nodes and spleens of each group were collected and analyzed.”
Dilutions of the sera were tested on ELISA plates coated with recombinant birch protein. A secondary antibody specific for IgE antibodies was used to detect bound antibody. […] The DNA constructs are thus not allergenic in that they prime a Th1 type response.

GAVQNEVTL (Artificial Peptide, NS3/4A H-2D Binding Peptide) [NS3-derived CTL peptide]
protection against growth of NS3/4A-EL-4 tumors after a single immunization [1]: not protected

NC(=O)c1ncn([C@@H]2O[C@H](CO)[C@@H](O)[C@H]2O)n1 [ribavirin, 1-β-D-ribofuranosyl-1,2,4-triazole-3-carboxamide]
effect on the IgG subclass response in the NS3-specific immune response [2]: does not change the IgG subclass response
effect on antibody levels, higher doses (1-10 mg) of ribavirin (antibodies to rNS3; 20 μg rNS3, weeks 1 and 3): enhance antibody levels at week three
effect on antibody levels, low doses (<1 mg) of ribavirin (antibodies to rNS3; 20 μg rNS3, weeks 1 and 3): enhance antibody levels at week one but not at week three
antibody titer compared to formulations composed of only rNS3 (antibodies to rNS3; 1 mg of ribavirin and either 10 μg or 100 μg of rNS3, two weeks post-immunization): significantly greater antibody titer
immune response compared to that elicited without ribavirin (antibodies to rNS3; approximately 1 to 3 mg doses of ribavirin): more than 12 times
T cell proliferative response compared to 100 μg rNS3 in PBS [3]: much greater T cell proliferative response
response to Engerix vaccine (HBsAg and alum) (antibodies to HBsAg): enhanced the response to 2 μg of an existing vaccine

B1: rBetv1: recombinant Betv1 protein (major Birch allergen) in Freunds incomplete adjuvant (protein, UniProt P15494 2-160, looked up)
Major pollen allergen Bet v …: GVFNYETETTSVIPAARLFKAFILDGDNLFPKVAPQAISSVENIEGNGGPGTIKKISFPEGFPFKYVKDRVDEVDHTNFKYNYSVIEGGPIGDTLEKISNEIKIVATPDGGSILKISNKYHTKGDHEVKAEQVKASKEMGETLLRAVESYLLAHSDAYN
modifications: in Freund's incomplete adjuvant
priming of IFN-γ producing Betv1-specific T cells [4]: fails to do
priming of IgE to Betv1 (IgE to Betv1): shows birch-specific IgE antibodies
